Measured values: patent publication US12264339B2, “Compositions and methods involving engineered P27” (THE REGENTS OF THE UNIVERSITY OF CALIFORNIA, priority 2018, dated 2025)

Legend:
[1] = test system: Rb (771-928), FoxM1 (526-748), histone H1; assay: 32P-ATP kinase assay of protein complexes on substrates (FIG. 1A); format: biochemical; conditions: 0.5 μM complex, 20 μM substrate, 250 μM ATP, 30 minutes
Description: The phosphorylation activity of Cdk4 in various complexes was tested using different substrates.
The substrates used in the kinase assays were the C-terminal domain of the retinoblastoma protein (Rb (771-928); SEQ ID NO: 62), the transactivation domain of FoxM1 (FoxM1 (526-748); SEQ ID NO: 64), and full-length histone H1 (SEQ ID NO: 65).

[2] = Steady-state kinetic assays, initial rate of phosphorylation vs ATP concentration (FIGS. 1B and 1C); format: biochemical; conditions: summary of kinetic results, FIG. 1C

| Substance | phosphorylation activity toward substrates [1] | ATP substrate capture [2] |
| --- | --- | --- |
| Cdk4-CycD dimeric complex: Cdk4-CycD1 dimeric complex lacking p27; covers complexes (i) and (ii) | high phosphorylation activity specifically for Rb |  |
| engineered p27 with Y74E, Y88E, and Y89E-Cdk4-CycD1 trimeric complex: trimeric complex of p27 Y74E/Y88E/Y89E, Cdk4 and CycD1; covers complexes (vii) and (viii) | greater activity toward FoxM1 and histone 1 | enhances ATP substrate capture |
